Source: publication PMC4317638 (Emerging Microbes & Infections, 2014)
Where a name gives a salt, the structure may show the parent alone. Read-outs that look alike come from different tables or passages of the source.

Columns and labels:
[1] = test system: Ebola VLP entry into HeLa cells; experiment: microbe, parasite or virus in culture; format: cell-based, Ebola virus; settings: for IC50 / IC90 / Emax: Zaire ebolavirus, HeLa; for IC90: read-out: Block Ebola VLP entry IC90; for Emax: read-out: Block Ebola VLP entry Max. Inh.
in vitro = settings: human, Cytotoxicity IC50
[2] = read-out: Block Ebola VLP entry IC50
[3] = read-out: IC50 of blocking Ebola VLP entry

| Molecule | Selectivity Index [1] | IC50 [1, 2] | IC90 [1] | Emax [1] | IC50 [1, 3] | IC50 (in vitro) | Activity in the Ebola VLP assay [1] |
| --- | --- | --- | --- | --- | --- | --- | --- |
| CCCSc1ccc2nc(NC(=O)OC)[nH]c2c1 [Albendazole] | >102 fold | 4.9 µM | 20.7 µM | 76% | 4.8 µM | > 500 µM |  |
| CCN(CCCc1ccccc1)CCCc1ccccc1 [Alverine Citrate] | >58 fold | 8.63 µM | 21.8 µM | 90% |  | > 500 µM |  |
| CCN(CC)Cc1cc(Nc2ccnc3cc(Cl)ccc23)ccc1O [Amodiaquine] | >113 fold | 4.43 µM | 27.3 µM | 106% |  | > 500 µM |  |
| CCN(CC)CCCN(c1ccccc1)C1Cc2ccccc2C1 [Aprindine] | >65 fold | 7.69 µM | 26.6 µM | 93% |  | > 500 µM |  |
| O=C(CCN1CCN2CCCC2C1)N1c2ccccc2Sc2ccc(Cl)cc21 (centres unmarked) [Azaclorzine] | >53 fold | 9.43 µM | 37.1 µM | 88% |  | > 500 µM |  |
| CC[C@H]1OC(=O)[C@H](C)[C@@H](O[C@H]2C[C@@](C)(OC)[C@@H](O)[C@H](C)O2)[C@H](C)[C@@H](O[C@@H]2O[C@H](C)C[C@H](N(C)C)[C@H]2O)[C@](C)(O)C[C@@H](C)CN(C)[C@H](C)[C@@H](O)[C@]1(C)O [Azithromycin] | >179 fold | 2.79 µM | 15.8 µM | 100% |  | > 500 µM |  |
| Cc1c(-c2ccc(O)cc2)n(Cc2ccc(OCCN3CCCCCC3)cc2)c2ccc(O)cc12 [Bazedoxifene] |  |  |  |  |  | 43.2 µM |  |
| CN1[C@@H]2CC[C@H]1C[C@@H](OC(c1ccccc1)c1ccccc1)C2 [Benztropine] |  |  | 8.25 µM | 100% |  | 250 µM |  |
| Cc1ccc(C(=O)Oc2ccc(C(O)CNC(C)(C)C)cc2OC(=O)c2ccc(C)cc2)cc1 (centres unmarked) [Bitolterol] | 41 fold | 6.11 µM | 22.6 µM | 85% |  | 250 µM |  |
| COc1cc(Nc2c(C#N)cnc3cc(OCCCN4CCN(C)CC4)c(OC)cc23)c(Cl)cc1Cl [Bosutinib] | 11 fold | 3.85 µM | 21.3 µM | 101% |  | 43.2 µM |  |
| CC(C)C[C@H](NC(=O)[C@H](CCc1ccccc1)NC(=O)CN1CCOCC1)C(=O)N[C@@H](Cc1ccccc1)C(=O)N[C@@H](CC(C)C)C(=O)[C@@]1(C)CO1 [Carfilzomib] | >1156 fold | 0.432 µM | 1.88 µM | 57% |  | > 500 µM |  |
| COc1ccc2cc1Oc1ccc(cc1)C[C@H]1c3c(cc4c(c3Oc3cc5c(cc3OC)CCN(C)[C@@H]5C2)OCO4)CCN1C [Cepharanthine] | 58 fold | 1.53 µM | 4.4 µM | 112% |  | 88.9 µM |  |
| CCN(CC)CCCC(C)Nc1ccnc2cc(Cl)ccc12 (centres unmarked) [Chloroquine] | >32 fold | 15.3 µM | 133 µM | 98% |  | > 500 µM |  |
| CC[C@H]1OC(=O)[C@H](C)[C@@H](O[C@H]2C[C@@](C)(OC)[C@@H](O)[C@H](C)O2)[C@H](C)[C@@H](O[C@@H]2O[C@H](C)C[C@H](N(C)C)[C@H]2O)[C@](C)(OC)C[C@@H](C)C(=O)[C@H](C)[C@@H](O)[C@]1(C)O [Clarithromycin] | >110 fold | 4.53 µM | 15.1 µM | 100% |  | > 500 µM |  |
| CN(C)CCCN1c2ccccc2CCc2ccc(Cl)cc21 [Clomipramine] |  |  | 11.7 µM | 93% |  | 64.1 µM |  |
| COc1cc2c(c(OC)c1OC)-c1ccc(OC)c(=O)cc1[C@@H](NC(C)=O)CC2 [Colchicine] |  |  | 0.354 µM | 73% |  | > 500 µM |  |
| CC1CCCCN1CCCOC(=O)c1ccc(OC2CCCCC2)cc1 (centres unmarked) [Cyclomethycaine] | >65 fold | 7.69 µM | 19.6 µM | 86% |  | > 500 µM |  |
| COc1cccc2c1C(=O)c1c(O)c3c(c(O)c1C2=O)C[C@@](O)(C(C)=O)C[C@@H]3O[C@H]1C[C@H](N)[C@H](O)[C@H](C)O1 [Daunomycin] | >190 fold | 2.63 µM | 5.4 µM | 98% |  | > 500 µM |  |
| C[C@H]1O[C@@H](O[C@H]2CC[C@@]3(C)[C@H](CC[C@@H]4[C@@H]3C[C@@H](O)[C@]3(C)[C@@H](C5=CC(=O)OC5)CC[C@]43O)C2)C[C@H](O)[C@@H]1O[C@H]1C[C@H](O)[C@H](O[C@H]2C[C@H](O)[C@H](O[C@@H]3O[C@H](CO)[C@@H](O)[C@H](O)[C@H]3O)[C@@H](C)O2)[C@@H](C)O1 [Deslanoside] | 515 fold | 0.485 µM | 11.7 µM | 66% |  | 250 µM |  |
| CCCCc1oc2ccc(NS(C)(=O)=O)cc2c1C(=O)c1ccc(OCCCN(CCCC)CCCC)cc1 [Dronedarone] | 21 fold | 2.2 µM | 3.51 µM | 81% |  | 48 µM |  |
| COc1cc2ncnc(Nc3ccc(F)c(Cl)c3)c2cc1OCCCN1CCOCC1 [Gefitinib] |  |  | 17.9 µM |  |  |  |  |

| Molecule | Selectivity Index [1] | IC50 [1, 2] | IC90 [1] | Emax [1] | IC50 [1, 3] | IC50 (in vitro) | Activity in the Ebola VLP assay [1] |
| --- | --- | --- | --- | --- | --- | --- | --- |
| CN(C)CCCN1c2ccccc2CCc2ccccc21 [Imipramine] |  |  |  |  |  | > 500 µM |  |
| CO[C@@H]1[C@@H](OC)[C@H](C)[C@@](O)(CC(=O)O)O[C@H]1[C@H](C)[C@H]1O[C@@]2(CC[C@@](C)([C@H]3CC[C@@](C)([C@@H]4O[C@@H]([C@H]5O[C@](C)(O)[C@H](C)C[C@@H]5C)C[C@@H]4O[C@@H]4C[C@H](OC)[C@@H](OC)[C@H](C)O4)O3)O2)C[C@H](O)[C@H]1C [Maduramicin] | 40 fold | 0.611 µM | 3.94 µM | 104% |  | 24.3 µM |  |
| CNCCCC12CCC(c3ccccc31)c1ccccc12 [Maprotiline] |  |  | 12.1 µM | 100% |  | 146 µM |  |
| COC(=O)Nc1nc2ccc(C(=O)c3ccccc3)cc2[nH]1 [Mebendazole] | >145 fold | 3.44 µM | 14 µM | 88% | 3.4 µM | > 500 µM |  |
| OC(c1cc(C(F)(F)F)nc2c(C(F)(F)F)cccc12)C1CCCCN1 (centres unmarked) [Mefloquine] | 16 fold | 2.73 µM | 13 µM | 94% |  | 43.2 µM |  |
| COCC(=O)O[C@]1(CCN(C)CCCc2nc3ccccc3[nH]2)CCc2cc(F)ccc2[C@@H]1C(C)C [Mibefradil] | 10 fold | 4.32 µM | 7.34 µM | 96% |  | 43.2 µM |  |
| O=C(Nc1ccc([N+](=O)[O-])cc1Cl)c1cc(Cl)ccc1O [Niclosamide] | >188 fold | 2.66 µM | 6.6 µM | 81% |  | > 500 µM |  |
| Cc1cn(-c2cc(NC(=O)c3ccc(C)c(Nc4nccc(-c5cccnc5)n4)c3)cc(C(F)(F)F)c2)cn1 [Nilotinib] | 2 fold | 24.3 µM | 104 µM | 100% | 15.3 µM | 50.1 µM |  |
| COC(=O)Nc1nc2ccc(C(=O)c3cccs3)cc2[nH]1 [Nocodazole] | >1242 fold | 0.402 µM | 1.04 µM | 87% | 0.4 µM | > 500 µM |  |
| CCCOc1ccc2nc(NC(=O)OC)[nH]c2c1 [Oxibendazole] | >291 fold | 1.72 µM | 3.75 µM | 57% |  | > 500 µM |  |
| CC(=O)c1ccc2c(c1)N(CCCN1CCC(CCO)CC1)c1ccccc1S2 [Piperacetazine] | >52 fold | 9.68 µM | 18.1 µM | 90% |  | > 500 µM |  |
| CC[C@@H]([C@H](C)O)n1ncn(-c2ccc(N3CCN(c4ccc(OC[C@@H]5CO[C@@](Cn6cncn6)(c6ccc(F)cc6F)C5)cc4)CC3)cc2)c1=O [Posaconazole] | >65 fold | 7.69 µM | 8.33 µM | 77% |  | > 500 µM |  |
| CCCN(CCC)C(=O)C(CCC(=O)OCCCN1CCN(CCOC(=O)Cc2c(C)n(C(=O)c3ccc(Cl)cc3)c3ccc(OC)cc23)CC1)NC(=O)c1ccccc1 (centres unmarked) [Proglumetacin] | >73 fold | 6.85 µM | 17.3 µM | 93% |  | > 500 µM |  |
| CCCNCC(O)COc1ccccc1C(=O)CCc1ccccc1 (centres unmarked) [Propafenone] | >80 fold | 6.25 µM | 23.8 µM | 100% | 6.2 µM | > 500 µM |  |
| O=C(c1ccc(OCCN2CCCCC2)cc1)c1c(-c2ccc(O)cc2)sc2cc(O)ccc12 [Raloxifene/Evista, Raloxifene] | >271 fold | 1.84 µM | 9.01 µM | 100% | 1.8 µM | > 500 µM |  |
| OCc1cc(C(O)CNCCCCCCOCCCCc2ccccc2)ccc1O (centres unmarked) [Salmeterol] | >52 fold | 9.68 µM | 13 µM | 90% |  | > 500 µM |  |
| CCN(CC)CCNC(=O)c1c(C)[nH]c(/C=C2\C(=O)Nc3ccc(F)cc32)c1C [Sunitinib] | 77 fold | 1.91 µM | 3.82 µM | 90% |  | 148 µM |  |
| CC/C(=C(\c1ccccc1)c1ccc(OCCN(C)C)cc1)c1ccccc1 [Tamoxifen] |  |  | 3.15 µM | 97% |  | 99.8 µM |  |
| CN1CCN(CCCN2c3ccccc3Sc3ccc(S(=O)(=O)N(C)C)cc32)CC1 [Thioproperazine] |  | 4.32 µM | 12.5 µM | 103% |  | > 500 µM |  |
| CN[C@H]1CC[C@@H](c2ccc(Cl)c(Cl)c2)c2ccccc21 [Zoloft, sertraline] |  |  | 9.08 µM |  |  |  |  |
| Maraviroc |  |  |  |  |  |  | not active |
